Measurements taken from paper PMC9851200, “Multiparameter phenotypic screening for endogenous TFEB and TFE3 translocation identifies novel chemical series modulating lysosome function” (Autophagy, 2022).

Experiments:
Assay type in all cases: binding
[1] = biological target: T1, kinases (KINOMEscan panel) (Homo sapiens, UniProt O14976); conditions: kinase GAK; NEW KINOMEscan
T1 sequence (O14976 1-1311): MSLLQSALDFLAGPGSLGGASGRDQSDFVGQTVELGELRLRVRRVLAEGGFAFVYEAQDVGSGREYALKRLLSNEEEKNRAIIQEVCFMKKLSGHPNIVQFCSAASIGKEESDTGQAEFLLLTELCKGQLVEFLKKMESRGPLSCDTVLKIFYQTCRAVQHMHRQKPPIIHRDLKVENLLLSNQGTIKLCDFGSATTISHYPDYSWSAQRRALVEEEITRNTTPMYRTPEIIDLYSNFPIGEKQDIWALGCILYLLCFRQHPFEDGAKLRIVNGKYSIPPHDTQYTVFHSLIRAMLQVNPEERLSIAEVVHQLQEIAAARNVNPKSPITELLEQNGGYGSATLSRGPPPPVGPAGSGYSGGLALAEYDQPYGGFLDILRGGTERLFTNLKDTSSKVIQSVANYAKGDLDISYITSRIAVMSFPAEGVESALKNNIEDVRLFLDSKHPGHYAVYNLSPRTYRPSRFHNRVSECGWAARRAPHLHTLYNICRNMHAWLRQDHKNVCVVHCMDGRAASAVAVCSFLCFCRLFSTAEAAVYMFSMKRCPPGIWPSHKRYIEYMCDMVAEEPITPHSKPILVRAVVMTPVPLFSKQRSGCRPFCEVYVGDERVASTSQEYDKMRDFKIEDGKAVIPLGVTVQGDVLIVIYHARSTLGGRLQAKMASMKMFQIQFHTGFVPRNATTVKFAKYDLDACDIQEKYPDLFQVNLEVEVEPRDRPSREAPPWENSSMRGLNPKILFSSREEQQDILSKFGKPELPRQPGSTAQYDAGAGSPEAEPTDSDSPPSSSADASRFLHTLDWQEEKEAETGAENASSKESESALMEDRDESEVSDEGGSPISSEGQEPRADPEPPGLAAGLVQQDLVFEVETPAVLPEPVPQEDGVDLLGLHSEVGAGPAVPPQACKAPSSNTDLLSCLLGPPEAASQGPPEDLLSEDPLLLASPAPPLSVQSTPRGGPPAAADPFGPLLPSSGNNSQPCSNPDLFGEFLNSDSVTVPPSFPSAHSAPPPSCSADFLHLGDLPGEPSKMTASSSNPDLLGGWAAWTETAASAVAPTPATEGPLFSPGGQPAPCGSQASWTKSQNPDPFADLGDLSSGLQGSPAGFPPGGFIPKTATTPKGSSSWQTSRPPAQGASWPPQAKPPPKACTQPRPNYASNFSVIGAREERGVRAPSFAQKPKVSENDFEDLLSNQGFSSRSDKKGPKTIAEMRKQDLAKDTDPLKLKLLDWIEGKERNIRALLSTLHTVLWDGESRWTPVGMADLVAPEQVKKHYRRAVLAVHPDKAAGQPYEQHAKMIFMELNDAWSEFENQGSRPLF

[2] = biological target: kinases (KINOMEscan panel) (Homo sapiens, UniProt O75716); conditions: kinase STK16; NEW KINOMEscan
[3] = biological target: kinases (KINOMEscan panel) (Homo sapiens, UniProt P00519); conditions: NEW KINOMEscan
[4] = biological target: kinases (KINOMEscan panel) (Homo sapiens, UniProt P00519, Y253F); conditions: kinase ABL1(Y253F)-phosphorylated; NEW KINOMEscan
[5] = biological target: kinases (KINOMEscan panel) (Homo sapiens, UniProt P15056, V600E); conditions: kinase BRAF(V600E); NEW KINOMEscan
[6] = biological target: kinases (KINOMEscan panel) (Homo sapiens, UniProt P21802); conditions: kinase FGFR2; NEW KINOMEscan
[7] = biological target: kinases (KINOMEscan panel) (Homo sapiens, UniProt P36888, D835V); conditions: NEW KINOMEscan
[8] = biological target: kinases (KINOMEscan panel) (Homo sapiens, UniProt P49761); conditions: CLK3; NEW KINOMEscan
[9] = biological target: kinases (KINOMEscan panel) (Homo sapiens, UniProt P50613); conditions: kinase CDK7; NEW KINOMEscan
[10] = biological target: kinases (KINOMEscan panel) (Homo sapiens, UniProt Q05655); conditions: kinase PRKCD; NEW KINOMEscan
[11] = biological target: T2, kinases (KINOMEscan panel) (Homo sapiens, UniProt Q16832); conditions: DDR2; NEW KINOMEscan
T2 sequence (Q16832 22-855): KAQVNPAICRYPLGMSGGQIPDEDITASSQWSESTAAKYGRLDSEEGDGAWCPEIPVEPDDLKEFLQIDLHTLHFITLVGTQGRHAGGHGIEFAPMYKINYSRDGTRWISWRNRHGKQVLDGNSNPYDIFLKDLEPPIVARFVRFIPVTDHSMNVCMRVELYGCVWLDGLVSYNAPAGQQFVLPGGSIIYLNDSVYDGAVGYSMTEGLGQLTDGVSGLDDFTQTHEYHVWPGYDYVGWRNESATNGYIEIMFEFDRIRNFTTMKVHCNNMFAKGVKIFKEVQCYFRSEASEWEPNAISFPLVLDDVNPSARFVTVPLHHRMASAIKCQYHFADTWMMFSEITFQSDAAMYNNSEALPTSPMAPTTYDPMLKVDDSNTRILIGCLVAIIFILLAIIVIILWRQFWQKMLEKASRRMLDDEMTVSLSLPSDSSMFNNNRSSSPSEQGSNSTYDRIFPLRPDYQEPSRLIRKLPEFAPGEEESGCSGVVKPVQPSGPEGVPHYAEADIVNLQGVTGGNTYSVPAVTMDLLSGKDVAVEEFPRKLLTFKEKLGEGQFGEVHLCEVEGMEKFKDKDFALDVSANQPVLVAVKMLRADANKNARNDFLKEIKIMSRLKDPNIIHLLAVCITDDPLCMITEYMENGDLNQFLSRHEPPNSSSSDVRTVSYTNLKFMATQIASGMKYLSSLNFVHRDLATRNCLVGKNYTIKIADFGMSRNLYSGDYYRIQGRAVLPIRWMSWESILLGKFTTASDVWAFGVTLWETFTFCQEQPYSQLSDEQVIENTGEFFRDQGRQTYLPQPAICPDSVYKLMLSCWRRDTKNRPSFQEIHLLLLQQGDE

Sequence of kinases (KINOMEscan panel) (Homo sapiens, UniProt P50613) (P50613 whole entry): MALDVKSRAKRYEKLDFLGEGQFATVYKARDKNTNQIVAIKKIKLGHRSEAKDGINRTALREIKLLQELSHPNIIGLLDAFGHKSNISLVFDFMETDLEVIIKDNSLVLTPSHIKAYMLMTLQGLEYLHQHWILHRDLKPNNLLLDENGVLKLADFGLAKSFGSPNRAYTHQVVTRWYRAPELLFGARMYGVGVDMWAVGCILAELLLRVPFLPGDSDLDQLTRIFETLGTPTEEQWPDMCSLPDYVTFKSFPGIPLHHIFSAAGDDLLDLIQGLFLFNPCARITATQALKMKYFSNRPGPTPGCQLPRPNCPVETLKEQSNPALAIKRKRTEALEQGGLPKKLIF
Sequence of kinases (KINOMEscan panel) (Homo sapiens, UniProt P21802) (P21802 22-821): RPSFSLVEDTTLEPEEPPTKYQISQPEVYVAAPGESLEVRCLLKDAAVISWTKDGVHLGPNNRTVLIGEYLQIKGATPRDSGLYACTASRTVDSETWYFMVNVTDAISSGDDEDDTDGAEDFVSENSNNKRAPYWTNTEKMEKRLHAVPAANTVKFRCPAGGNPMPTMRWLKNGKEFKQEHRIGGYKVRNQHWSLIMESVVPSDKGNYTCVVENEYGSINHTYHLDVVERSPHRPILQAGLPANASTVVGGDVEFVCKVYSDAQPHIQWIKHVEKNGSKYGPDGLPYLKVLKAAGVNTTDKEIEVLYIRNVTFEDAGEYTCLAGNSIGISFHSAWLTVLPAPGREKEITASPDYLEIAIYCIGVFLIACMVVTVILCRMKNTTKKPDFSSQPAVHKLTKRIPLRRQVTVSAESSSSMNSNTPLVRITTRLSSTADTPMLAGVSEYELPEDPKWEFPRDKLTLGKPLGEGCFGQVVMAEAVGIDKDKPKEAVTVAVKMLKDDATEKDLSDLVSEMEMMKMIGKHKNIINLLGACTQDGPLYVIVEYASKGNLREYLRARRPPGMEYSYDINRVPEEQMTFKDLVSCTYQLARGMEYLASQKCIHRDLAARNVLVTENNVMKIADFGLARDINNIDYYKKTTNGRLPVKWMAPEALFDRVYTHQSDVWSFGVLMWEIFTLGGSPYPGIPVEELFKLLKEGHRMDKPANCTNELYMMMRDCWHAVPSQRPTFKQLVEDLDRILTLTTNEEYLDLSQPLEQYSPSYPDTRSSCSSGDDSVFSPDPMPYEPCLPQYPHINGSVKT
Sequence of kinases (KINOMEscan panel) (Homo sapiens, UniProt P49761) (P49761 whole entry): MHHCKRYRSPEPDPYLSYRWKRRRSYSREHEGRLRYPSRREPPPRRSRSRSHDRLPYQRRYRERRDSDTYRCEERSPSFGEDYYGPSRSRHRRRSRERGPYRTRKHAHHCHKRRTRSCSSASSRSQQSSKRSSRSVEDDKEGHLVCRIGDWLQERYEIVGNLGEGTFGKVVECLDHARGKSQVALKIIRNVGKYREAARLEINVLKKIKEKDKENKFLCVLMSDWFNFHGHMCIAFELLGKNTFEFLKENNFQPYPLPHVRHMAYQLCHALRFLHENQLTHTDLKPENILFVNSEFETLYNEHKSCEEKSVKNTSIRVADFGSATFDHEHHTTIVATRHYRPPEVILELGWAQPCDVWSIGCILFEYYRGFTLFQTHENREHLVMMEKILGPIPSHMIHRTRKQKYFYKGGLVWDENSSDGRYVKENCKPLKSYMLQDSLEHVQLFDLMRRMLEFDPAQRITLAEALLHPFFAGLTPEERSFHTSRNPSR
Sequence of kinases (KINOMEscan panel) (Homo sapiens, UniProt P15056, V600E) (P15056 whole entry V600E): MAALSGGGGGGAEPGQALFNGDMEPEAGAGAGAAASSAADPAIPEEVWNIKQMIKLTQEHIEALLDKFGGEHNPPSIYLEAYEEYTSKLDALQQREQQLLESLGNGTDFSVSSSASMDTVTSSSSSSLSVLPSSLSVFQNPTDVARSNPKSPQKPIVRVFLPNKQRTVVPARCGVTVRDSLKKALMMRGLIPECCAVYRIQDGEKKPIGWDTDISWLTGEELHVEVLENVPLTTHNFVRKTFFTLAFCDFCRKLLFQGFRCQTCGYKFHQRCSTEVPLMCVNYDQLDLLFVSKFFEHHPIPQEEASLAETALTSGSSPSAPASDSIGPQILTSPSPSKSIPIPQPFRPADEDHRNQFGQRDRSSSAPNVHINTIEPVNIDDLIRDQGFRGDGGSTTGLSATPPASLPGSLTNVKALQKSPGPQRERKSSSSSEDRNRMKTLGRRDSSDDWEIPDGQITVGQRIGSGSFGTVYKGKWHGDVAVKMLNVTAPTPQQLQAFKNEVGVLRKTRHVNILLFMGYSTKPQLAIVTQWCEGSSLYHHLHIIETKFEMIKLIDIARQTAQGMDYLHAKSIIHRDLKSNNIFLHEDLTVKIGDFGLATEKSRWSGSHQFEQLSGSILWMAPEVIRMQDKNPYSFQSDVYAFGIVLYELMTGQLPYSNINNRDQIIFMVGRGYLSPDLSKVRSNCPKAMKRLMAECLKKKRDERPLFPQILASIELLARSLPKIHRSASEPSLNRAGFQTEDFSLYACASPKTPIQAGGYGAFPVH
Sequence of kinases (KINOMEscan panel) (Homo sapiens, UniProt O75716) (O75716 whole entry): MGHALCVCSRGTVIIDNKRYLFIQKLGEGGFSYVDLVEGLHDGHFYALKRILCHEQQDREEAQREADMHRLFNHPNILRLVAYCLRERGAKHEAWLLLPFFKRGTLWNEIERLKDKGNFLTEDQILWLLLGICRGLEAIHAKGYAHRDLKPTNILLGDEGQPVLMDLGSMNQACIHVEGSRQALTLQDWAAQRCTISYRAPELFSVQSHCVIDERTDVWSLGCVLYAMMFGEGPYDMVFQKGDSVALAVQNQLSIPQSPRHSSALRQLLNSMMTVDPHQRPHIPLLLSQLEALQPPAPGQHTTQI
Sequence of kinases (KINOMEscan panel) (Homo sapiens, UniProt Q05655) (Q05655 whole entry): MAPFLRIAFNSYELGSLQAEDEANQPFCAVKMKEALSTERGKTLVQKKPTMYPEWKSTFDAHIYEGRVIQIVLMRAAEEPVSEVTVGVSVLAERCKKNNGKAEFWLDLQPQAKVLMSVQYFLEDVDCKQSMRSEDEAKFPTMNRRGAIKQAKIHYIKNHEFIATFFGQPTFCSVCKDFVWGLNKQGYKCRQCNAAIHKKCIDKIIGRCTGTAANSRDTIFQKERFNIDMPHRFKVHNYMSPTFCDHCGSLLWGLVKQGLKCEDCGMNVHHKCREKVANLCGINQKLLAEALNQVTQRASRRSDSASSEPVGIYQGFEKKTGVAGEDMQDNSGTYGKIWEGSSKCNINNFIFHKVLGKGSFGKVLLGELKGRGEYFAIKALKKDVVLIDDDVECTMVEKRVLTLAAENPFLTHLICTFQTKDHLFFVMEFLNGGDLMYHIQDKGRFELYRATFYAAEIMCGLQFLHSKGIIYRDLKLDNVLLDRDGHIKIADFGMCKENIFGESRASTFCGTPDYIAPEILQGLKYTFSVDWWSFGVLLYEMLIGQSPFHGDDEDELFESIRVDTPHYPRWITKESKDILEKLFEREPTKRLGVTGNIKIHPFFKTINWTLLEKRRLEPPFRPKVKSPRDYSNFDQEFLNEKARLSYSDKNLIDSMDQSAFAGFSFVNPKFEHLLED

With `Cc1cccc(-c2nc(Nc3ccc4nn(C)cc4c3)c3ccccc3n2)n1` [NK167] the “KINOMEscan GAK” value [1] was 0, the “KINOMEscan STK16” value [2] was 19 and the “KINOMEscan ABL1-nonphosphorylated” value [3] was 0. For the same compound, the “KINOMEscan ABL1-phosphorylated” value [3] was 41, the “KINOMEscan ABL1(Y253F)-phosphorylated” value [4] was 0 and the “KINOMEscan BRAF(V600E)” value [5] was 0. The “KINOMEscan FGFR2” value [6] was 0, the “KINOMEscan FLT3(D835V)” value [7] was 19 and the “KINOMEscan CLK3” value [8] was 6. The “KINOMEscan CDK7” value [9] was 0, the “KINOMEscan PRKCD” value [10] was 21 and the “KINOMEscan DDR2” value [11] was 2.
In the case of `Cc1cccc(-c2nc(N(C)c3ccc4ncsc4c3)c3ccccc3n2)n1` [NK-161], the “KINOMEscan GAK” value [1] is reported as 0, the “KINOMEscan STK16” value [2] is reported as 15 and the “KINOMEscan ABL1-nonphosphorylated” value [3] is reported as 0. For the same compound, the “KINOMEscan ABL1-phosphorylated” value [3] was 29, the “KINOMEscan ABL1(Y253F)-phosphorylated” value [4] was 0 and the “KINOMEscan BRAF(V600E)” value [5] was 0. For the same compound, the “KINOMEscan FGFR2” value [6] was 9, the “KINOMEscan FLT3(D835V)” value [7] was 30 and the “KINOMEscan CLK3” value [8] was 4. The “KINOMEscan CDK7” value [9] was 7, the “KINOMEscan PRKCD” value [10] was 16 and the “KINOMEscan DDR2” value [11] was 1.
